Patent publication US20080045467A1, “Composition Containing Ginsenoside F1 Or Compound K For Skin External Application” (Amorepacific Corporation, priority 2004, published 2008)

Legend:
Type IV collagen = experiment: Biosynthesis of Type IV collagen in human keratinocyte (Dot Blot); assay type: cell-based; details: 24 hours, control = 100
Method: (§1) Human keratinocyte was cultured with a concentration of 5×10^4 cells/well in 24-well plate mediums, and each medium was exchanged with a new one containing the compound separated in either example 1 or 2 at the densities of 0.1 ppm, 1 ppm or 10 ppm. After 24 hours of cultivation, the supernatants were harvested and the amount of Type IV collagen was quantified using Dot Blot method.

laminin 10/11 = experiment: Biosynthesis of laminin 10/11 in human keratinocyte (Dot Blot); assay type: cell-based; details: 24 hours, control group = 100
Method: as §1, with “Example” for “example”, “laminin 10/11” for “Type IV collagen”

MMP-2 = experiment: Inhibition of biosynthesis of MMP-2 in UVB-irradiated human keratinocyte (gelatin zymography); assay type: cell-based; details: 30 mJ/cm^2 UVB, 2 days, amount relative to control group = 100
Method: (§2) Human keratinocyte was cultured with a concentration of 10^4 cells/well in 24-well plate mediums, and 24 hours later they were irradiated with 30 mJ/cm^2 of UVB. Each medium was then exchanged with a new one containing the compound separated in either Example 1 or 2 at the densities of 0.1 ppm, 1 ppm or 10 ppm, respectively. After 2 days of cultivation, the supernatants were obtained and gelatin zymography was performed on the obtained supernatant to form MMP-2 and MMP-9. The amount of MMP-2 and MMP-9 thus formed was determined by densitometer for each medium, and was compared with the amount of MMP-2 and MMP-9 in the control group, which was set as 100 (The mediums not containing the compounds in Examples 1 and 2 were cultured as a control group).

[1] = tested on: epidermal-dermal junction; experiment: Change in epidermal-dermal junction of UV-irradiated nude mouse (electron microscope); assay type: in vivo; details: applied while irradiating with UV light, compared to comparative formulation 1
Method: In order to verify the change to the epidermal-dermal junction irradiated with UV light by the composition of the present invention, external applications with the formulation of nutrition cream were prepared according to the ratios in Table 5.
Each of the formulations 1˜3 and the comparative formulation 1 were applied to the back of each nude mouse 5 times in a week for 2 weeks, and for 12 weeks thereafter each of the formulations 1˜3 and the comparative formulation 1 were applied 5 times per week while irradiating UV light 3 times. After biopsy, the change of the epidermal-dermal junction was determined by electron microscope.

MMP-9 = experiment: Inhibition of biosynthesis of MMP-9 in UVB-irradiated human keratinocyte (gelatin zymography); assay type: cell-based; details: 30 mJ/cm^2 UVB, 2 days, amount relative to control group = 100
Method: as §2

Type VII collagen = experiment: Biosynthesis of Type VII collagen in human fibroblast (Dot Blot); assay type: cell-based; details: 24 hours, control group = 100
Method: as §1, with “fibroblast” for “keratinocyte”, “10^4” for “5×10^4”, “Example” for “either example”, “VII” for “IV”

Structure (SMILES) | Biosynthesis of Type IV collagen (%) (Type IV collagen; 0.1 ppm) | Biosynthesis of Type IV collagen (%) (Type IV collagen; 1 ppm) | Biosynthesis of Type IV collagen (%) (Type IV collagen; 10 ppm) | Biosynthesis of laminin 10/11 (%) (laminin 10/11; 0.1 ppm) | Biosynthesis of laminin 10/11 (%) (laminin 10/11; 1 ppm) | Biosynthesis of laminin 10/11 (%) (laminin 10/11; 10 ppm) | MMP-2 (%) (MMP-2; 0.1 ppm) | MMP-2 (%) (MMP-2; 1 ppm) | MMP-2 (%) (MMP-2; 10 ppm) | change, separation or multiplexing of the epidermal-dermal junction [1] | MMP-9 (%) (MMP-9; 0.1 ppm) | MMP-9 (%) (MMP-9; 1 ppm) | MMP-9 (%) (MMP-9; 10 ppm) | Biosynthesis of Type VII collagen (%) (Type VII collagen; 0.1 ppm) | Biosynthesis of Type VII collagen (%) (Type VII collagen; 1 ppm) | Biosynthesis of Type VII collagen (%) (Type VII collagen; 10 ppm)
CC(C)=CCC[C@](C)(O[C@@H]1O[C@H](CO)[C@@H](O)[C@H](O)[C@H]1O)[C@H]1CC[C@]2(C)[C@@H]1[C@H](O)C[C@@H]1[C@@]3(C)CC[C@H](O)C(C)(C)[C@@H]3CC[C@]12C [Example 2, 20-O-β-D-glucopyranosyl-20(S)-protopanaxadiol] | 119 | 128 | 139 | 115 | 125 | 137 | 79 | 61 | 48 | little change, separation or multiplexing | 78 | 62 | 49 | 120 | 135 | 146
CC(C)=CCC[C@](C)(O[C@@H]1O[C@H](CO)[C@@H](O)[C@H](O)[C@H]1O)[C@H]1CC[C@]2(C)[C@@H]1[C@H](O)C[C@@H]1[C@@]3(C)CC[C@H](O)C(C)(C)[C@@H]3[C@@H](O)C[C@]12C [Example 1, 20-O-β-D-glucopyranosyl-20(S)-protopanaxatriol] | 116 | 129 | 134 | 112 | 125 | 134 | 82 | 67 | 51 | little change, separation or multiplexing | 85 | 69 | 55 | 118 | 132 | 141
